Experimental data from PubChem BioAssay AID330 (DTP/NCI, 2004).
Several values for one entry are separate records, joined by “and”; a condition that tells them apart may be missing. Equal entries are not always repeated. Toxic doses and inconclusive results are not listed. The calls were made as follows: active = survival T/C of 150% or more; inactive = T/C below 125% in these data.

Test system: P388 leukemia ip, CD2F1 mice, survival T/C
Assay: NCI In Vivo Anticancer Drug Screen. Data for tumor model P388 Leukemia (intraperitoneal) in CD2F1 (CDF1) mice
Details: endpoint: median survival time, higher = longer survival
Summary of the method: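 Mice carrying the transplanted tumor received test compound or vehicle. Survival was recorded in each group, and the value is the treated-group measurement divided by that of the vehicle-treated control group.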

[1] = dose: 100.0 mg/kg/injection, schedule: Q04DX003 (ip), vehicle: saline with Tween-80
[2] = dose: 200.0 mg/kg/injection, schedule: Q04DX003 (ip), vehicle: saline with Tween-80
[3] = dose: 400.0 mg/kg/injection, schedule: Q04DX003 (ip), vehicle: saline with Tween-80

Measured: T/C

O=C1C(=O)c2ccccc2C(O)=C1CC=C(Cl)Cl
inactive: dose: 6.2 mg/kg/injection, schedule: Q01DX009 (ip), vehicle: water 120 % of control | dose: 12.5 mg/kg/injection, schedule: Q01DX009 (ip), vehicle: water 120 % of control | dose: 25.0 mg/kg/injection, schedule: Q01DX009 (ip), vehicle: water 110 % of control | dose: 25.0 mg/kg/injection, schedule: Q01DX009 (oral), vehicle: water 105 % of control | dose: 50.0 mg/kg/injection, schedule: Q01DX009 (ip), vehicle: water 120 % of control | dose: 50.0 mg/kg/injection, schedule: Q01DX009 (oral), vehicle: water 120 % of control | dose: 100.0 mg/kg/injection, schedule: Q01DX009 (oral), vehicle: water 120 % of control

CC1(OC(=O)Nc2ccccc2)CCCCC1
inactive: [1] 96 % of control | [2] 100 % of control | [3] 97 % of control

CN1C(=O)C(=CN(C)c2ccccc2)C(=O)N(C)C1=O
inactive: dose: 25.0 mg/kg/injection, schedule: Q04DX003 (ip), vehicle: saline with Tween-80 111 % of control | dose: 50.0 mg/kg/injection, schedule: Q04DX003 (ip), vehicle: saline with Tween-80 112 % of control | [1] 114 % of control and 96 % of control

ONc1ccc2c(c1)C1C(C3C2C2(Cl)C(Cl)=C(Cl)C3(Cl)C2(Cl)Cl)C2(Cl)C(Cl)=C(Cl)C1(Cl)C2(Cl)Cl (stereo not given)
inactive: dose: 50.0 mg/kg/injection, schedule: Q01DX009 (ip), vehicle: saline 96 % of control | dose: 100.0 mg/kg/injection, schedule: Q01DX009 (ip), vehicle: saline 99 % of control | dose: 200.0 mg/kg/injection, schedule: Q01DX009 (ip), vehicle: saline 92 % of control

O=C(O)/C=C(\F)C(=O)O
inactive: dose: 12.5 mg/kg/injection, schedule: Q01DX005 (ip), vehicle: saline 97 % of control and 94 % of control | dose: 25.0 mg/kg/injection, schedule: Q01DX005 (ip), vehicle: saline 100 % of control and 96 % of control | dose: 50.0 mg/kg/injection, schedule: Q01DX005 (ip), vehicle: saline 100 % of control and 107 % of control | dose: 100.0 mg/kg/injection, schedule: Q01DX005 (ip), vehicle: saline 92 % of control and 97 % of control | dose: 200.0 mg/kg/injection, schedule: Q01DX005 (ip), vehicle: saline 97 % of control

CN=C(c1ccc(NC(=O)c2ccc(C(=O)Nc3ccc(C(=NC)N4CCCC4)cc3)cc2)cc1)N1CCCC1
inactive: dose: 0.39 mg/kg/injection, schedule: Q01DX005 (ip), vehicle: Klucel (hydroxypropylcellulose) (HPC) 99 % of control | dose: 0.78 mg/kg/injection, schedule: Q01DX005 (ip), vehicle: Klucel (hydroxypropylcellulose) (HPC) 93 % of control | dose: 1.56 mg/kg/injection, schedule: Q01DX005 (ip), vehicle: Klucel (hydroxypropylcellulose) (HPC) 94 % of control | dose: 3.12 mg/kg/injection, schedule: Q01DX005 (ip), vehicle: Klucel (hydroxypropylcellulose) (HPC) 97 % of control

COC1OC(C(C)Br)C2OC(C)(C)OC12 (stereo not given)
inactive: dose: 60.0 mg/kg/injection, schedule: Q01DX005 (ip), vehicle: saline with Tween-80 105 % of control | dose: 120.0 mg/kg/injection, schedule: Q01DX005 (ip), vehicle: saline with Tween-80 102 % of control | dose: 240.0 mg/kg/injection, schedule: Q01DX005 (ip), vehicle: saline with Tween-80 107 % of control

COC(=O)C(Nc1ccc(OC)cc1)c1ccccc1 (stereo not given)
inactive: dose: 60.0 mg/kg/injection, schedule: Q01DX005 (ip), vehicle: Klucel (hydroxypropylcellulose) (HPC) 108 % of control | dose: 120.0 mg/kg/injection, schedule: Q01DX005 (ip), vehicle: Klucel (hydroxypropylcellulose) (HPC) 104 % of control | dose: 240.0 mg/kg/injection, schedule: Q01DX005 (ip), vehicle: Klucel (hydroxypropylcellulose) (HPC) 110 % of control

CCCCCCCCCCCCCCCC(O)CC(O)CC(O)CC1CC=CC(=O)O1 (stereo not given)
inactive: dose: 4.0 mg/kg/injection, schedule: Q01DX009 (ip), vehicle: Klucel (hydroxypropylcellulose) (HPC) 100 % of control | dose: 8.0 mg/kg/injection, schedule: Q01DX009 (ip), vehicle: Klucel (hydroxypropylcellulose) (HPC) 100 % of control | dose: 16.0 mg/kg/injection, schedule: Q01DX009 (ip), vehicle: Klucel (hydroxypropylcellulose) (HPC) 104 % of control | dose: 32.0 mg/kg/injection, schedule: Q01DX009 (ip), vehicle: Klucel (hydroxypropylcellulose) (HPC) 109 % of control

COC(=O)c1cc(=O)c2scc(C)[n+]2[nH]1
inactive: dose: 50.0 mg/kg/injection, schedule: Q01DX005 (ip), vehicle: saline with Tween-80 105 % of control | dose: 100.0 mg/kg/injection, schedule: Q01DX005 (ip), vehicle: saline with Tween-80 100 % of control | dose: 200.0 mg/kg/injection, schedule: Q01DX005 (ip), vehicle: saline with Tween-80 100 % of control

CCOC(=O)c1cc(NC(C)=O)c(C)n1C
inactive: [1] 107 % of control | [2] 116 % of control | [3] 112 % of control

ON=C(C1CC1)C1CC1
inactive: dose: 25.0 mg/kg/injection, schedule: Q01DX009 (ip), vehicle: saline with Tween-80 95 % of control | dose: 50.0 mg/kg/injection, schedule: Q01DX009 (ip), vehicle: saline with Tween-80 101 % of control | dose: 100.0 mg/kg/injection, schedule: Q01DX009 (ip), vehicle: saline with Tween-80 104 % of control | dose: 200.0 mg/kg/injection, schedule: Q01DX009 (ip), vehicle: saline with Tween-80 91 % of control
